Experimental findings from US7507727B2, “Substituted quinobenzoxazine analogs and methods of using thereof” (Cylene Pharmaceuticals, Inc., priority 2003, dated 2009) are described below.

Test [1] concerns H-RAS quadruplex (HRAS-85). The test is described as follows: Direct interaction assay. It counts as binding. The source says:
(§1) Direct Interaction Assay. Compounds may be evaluated for their ability to interact directly with nucleic acids capable of forming a quadruplex structure, wherein the nucleic acid is not a telomeric nucleic acid. The assay may be performed in the same or different vessels. For example, a compound may be contacted with each nucleic acid in the same vessel. Alternatively, a compound may be separately contacted with each of the nucleic acids tested in a different vessel. A telomeric nucleic acid as used herein represents a region of highly repetitive nucleic acid at the end of a chromosome. As used herein, a direct interaction is measured without the presence of a competitor nucleic acid.
(§2) An interaction between the compound and the nucleic acid may be determined for example, by measuring IC50 values, which are indicative of the binding and/or quadruplex stabilization. The selectivity of interactions may be determined, for example, by comparing measured IC50 values. For example, the-lowest IC50 values may be used to indicate a strong interaction between the compound and the nucleic acid, while highest IC50 values show a poor interaction; thus, showing selectivity of interaction. The reaction products were characterized by capillary electrophoresis.
(§3) Using a direct interaction assay, CX-3543 was screened for its ability to bind to and/or stabilize different types of quadruplexes. In this example, a 5′-fluorescent-labeled (FAM) primer (P45, 15 nM) is mixed with template DNA (15 nM) in a Tris-HCL buffer (15 mM Tris, pH 7.5) containing 10 mM MgCl2, 0.1 mM EDTA and 0.1 mM mixed deoxynucleotide triphosphates (dNTP's). The mixture is denatured at 95° C. for 5 minutes and, after cooling down to room temperature, is incubated at 37° C. for 15 minutes. After cooling down to room temperature, 1 mM KCl and the test compound at various concentrations are added, and the mixture incubated for 15 minutes at room temperature. The primer extension is performed by adding […] and Taq DNA Polymerase (2.5 U/reaction, Promega), and incubating at 70° C. for 20 minutes.

For test [2], the system named is Hum Tel quadruplex (Humtel-95). Description: Direct interaction assay. It counts as binding.
Description: as §1, §2, §3

In a further test the test system is i-motif (IMOTIF99). The test is described as follows: Direct interaction assay. The class given is binding.
Description: as §1, §2, §3

Test [3] concerns HMGA-2 quadruplex (HMGA-97). The test is described as follows: Direct interaction assay. The class given is binding.
Description: as §1, §2, §3

The test system of test [4] is BCl-2 quadruplex (BCL2-97). The test is described as follows: Direct interaction assay. It counts as binding.
Description: as §1, §2, §3

For the next test, the system named is c-myc quadruplex (MYC99). The test is described as follows: Direct interaction assay. It counts as binding.
Description: as §1, §2, §3

In a further test the test system is SRC quadruplex (SRC89). Description: Direct interaction assay. The class given is binding.
Description: as §1, §2, §3

The test system of test [5] is TGF-β quadruplex (TGFB3-81). Description: Direct interaction assay. It counts as binding.
Description: as §1, §2, §3

In test [6] the test system is c-myc quadruplex relative to pUC 18 plasmid DNA. Description: Quadruplex/duplex competitor assay (selectivity screen). The class given is binding. The conditions noted are these: ratio of the competitor IC50 values; FIG. 3. The protocol:
After cooling down to room temperature, 1 mM KCl and the test compound (various concentrations) were added and the mixture incubated for 15 minutes at room temperature. The primer extension was performed by adding 10 mM KCl and Taq DNA Polymerase (2.5 U/reaction, Promega) and incubating at 70° C. for […]. The reaction was stopped by adding 1 μl of the reaction mixture to 10 μl Hi-Di Formamide mixed and 0.25 μl LIZ120 size standard. Hi-Di Formamide and LIZ120 size standard were purchased from Applied Biosystems. The method is repeated with the addition of various concentrations of competitor nucleic acids at the first step, along with the primer and template sequences. The G-quadruplex binding ligand is added at the concentration previously established to produce a 1:1 ratio of stop-product to full-length product.
Quadruplex/Duplex Competitor Assay. The selectivity of compounds for the target quadruplex sequence relative to duplex DNA may be measured using a competition assay (i.e., “selectivity screen”). […] The degree to which each competitor successfully “soaks up” drug in solution is reflected by the quantitative decrease in synthesis of the stop product. In this manner, the relative binding affinities of drug to both the target quadruplex and duplex DNA are determined. […]

For the next test, the system named is c-MYC mRNA. The test is described as follows: c-MYC mRNA expression in tumor samples by QPCR. The class given is in vivo, mice. The note with it: HCT-116. The protocol:
CX-3543 was tested against a number of cancer xenograft models to determine the in vivo efficacy. HCT-116 and PC-3 tumor-bearing nu/nu or MiaPaCa tumor-bearing SCID mice were administered reference and testing compounds on schedules indicated in figure legends. Tumor measurements were taken with calipers every other day or twice a week starting from the first day of dosing and body weights were measured at the same time points. Tumor volumes were calculated from the standard formula, W^2×L/2. c-MYC mRNA expression was measured with QPCR from all tumor samples following the final dose. 18S ribosomal RNA was used as a housekeeper and also quantified with QPCR.

The test system of another test is HCT-116 cells. The test is described as follows: Annexin V-Alexa 488 staining. It counts as cell-based. The note with it: 2 uM and 4 uM, 24 hr. Here is the method: The following protocol was followed for this example. […] Incubate o/n or up to 24 hrs at 37° C. in CO2 incubator. […] Keep one or two untreated plates (medium only) as control plates. […] Harvest cells (collect attached as well as floating cells). Wash cells twice with cold PBS. Re-suspend cells in 1× Annexin binding buffer.
Count cells and dilute in 1× Annexin binding buffer to ˜1×10^6 cells/0.1 ml, preparing a sufficient volume to have 100 μl per assay. Add 5 μl of the Annexin V conjugate to each 100 μl of cell suspension. Add 4 μl of propidium iodide solution (stock=1 mg/ml) to each 100 μl of cell suspension. Incubate sample at RT for 15 minutes. Add 400 μl Annexin binding buffer, mix gently and keep samples on ice. Analyze stained cells immediately by flow cytometry.

The structures appear in SMILES notation.

As for `CN1CCCC1CCNC(=O)c1cn2c3c(c(N4CCC(c5cnccn5)C4)c(F)cc3c1=O)Oc1cc3ccccc3cc1-2` (centres unmarked) [CX-3543], the interaction with quadruplex entry is “strongly” in test [1] (H-RAS, propeller quadruplex); “less strongly” in test [2] (Hum Tel, chair-eller / basket quadruplex); “weakly” with i-motif (IMOTIF99) (i-motif); “weakly” in test [3] (HMGA-2, heptad-tetrad); “less strongly” in test [4] (BCl-2, chair-eller / basket quadruplex); “strongly” with c-myc quadruplex (MYC99) (c-myc, propeller quadruplex). For the same compound, the interaction with quadruplex entry in the test with SRC quadruplex (SRC89) (SRC, heptad-tetrad) is reported as “weakly”; in [5] (TGF-β, propeller quadruplex) it was “strongly”. The half-maximal inhibitory concentration (IC50) in [1] (insert H-RAS) is 1100 nM; in [2] (insert HumTel) it was 3.3 µM; in the test on i-motif (IMOTIF99) (insert I-Motif), above 10 µM; in [3] (insert HMGA), above 10 µM; in test [4] (insert BCL-2), 2000 nM; in the test with c-myc quadruplex (MYC99) (insert c-MYC), 600 nM. Further, the IC50 with SRC quadruplex (SRC89) (insert SRC) is above 10 µM; in test [5] (insert TGF-β) it was 1300 nM. Moreover, in [6], the “selectivity for the c-myc quadruplex relative to pUC 18 plasmid DNA” value is “approximately 400 ×”. In addition, the “lowering of c-Myc mRNA expression relative to control (18s rRNA) in tumor tissue” value in the test on c-MYC mRNA (20 mg/kg group) is listed as 85%. Also, in the test with c-MYC mRNA (10, 15 and 20 mg/kg), the “c-Myc mRNA expression relative to control (18s rRNA) in tumor tissue” value is on record as “dose-dependent lowering”. For the same compound, the “staining by a dye positive for Annexin V externalization” value in the test on HCT-116 cells is given as “significant increased staining”.
